What was measured:
MAO A = MAO A (Homo sapiens (Human), UniProt P21397); assay: Monoamine Oxidase assay (MAO-Glo), MAO A; format: biochemical
Procedure: (§1) Recombinant (expressed in baculovirus infected BTI insect cells) monoamine oxidase A and monoamine oxidase B (Catalog No. M7316 and M7441, respectively) were purchased from Sigma-Aldrich Co. LLC. […] MAO-Glo™ Assay Kit was purchased from Promega Corporation (Madison, Wis.).
(§2) Briefly, 6.25 μL of test compound was added to each well of a 384-well plate. Enzyme (either MAO A or B) was added (12.5 μL in 2× buffer containing 1 μg protein) and allowed to incubate for 5 minutes. Finally, 6.25 μL of 4×MAO substrate was added to each well. Following a one hour incubation, 25 μL of Luciferin detection reagent was added to each well, and incubated for 20 minutes. Luminescence was then measured on an Envision microplate reader.
(§3) IC50 values are determined using GraphPad Prism 5 software. The data were entered as an X-Y plot into the software as percent inhibition for each concentration of the drug. The concentration values of the drug were log transformed and the nonlinear regression was carried out using the “sigmoidal dose-response (variable slope)” option within the GraphPad software to model the data and calculate IC50 values.

MAO B = MAO B (Homo sapiens (Human), UniProt P27338); assay: Monoamine Oxidase assay (MAO-Glo), MAO B; format: biochemical
Procedure: as §1, §2, §3

T-47D cells = assay: Cell Viability Assay (ATPlite), T-47D; format: cell-based; settings: Homo sapiens, T47D, 96-hours of incubation, read-out: Cell Growth, IC50
Procedure: Cells were cultured according to the procedures provided. […] Cells were cultured at 37° C. and 5% CO2.
as §3

LSD1 = LSD1 (Homo sapiens (Human), UniProt O60341); assay: LSD1 Histone Demethylase Assay (LSD1 Inhibitor Screening Assay Kit); format: biochemical; settings: for LSD1 biochemical activity (in words): SAR discussion
Procedure: Briefly, test compounds were diluted to 20× the desired test concentration in 100% DMSO and 2.5 μL of the diluted drug sample was added to a black 384-well plate. The LSD1 enzyme stock was diluted 17-fold with assay buffer and 40 μM of the diluted LSD1 enzyme was added to the appropriate wells.
as §3

MDA-MB-235 = assay: Cell Viability Assay (ATPlite), MDA-MB-235; format: cell-based; settings: 96-hours of incubation, read-out: Cell Growth, IC50
Procedure: Cancer cell lines were obtained from ATCC. Cells were cultured according to the procedures provided. In addition to the supplements indicated in Table 4, media were also supplemented with 1% penicillin/streptomycin (100 IU/mL penicillin and 100 μg/mL streptomycin). Cells were cultured at 37° C. and 5% CO2. ATCC is the American Type Culture Collection (Manassas, Va.).
Cell viability was determined using ATPlite™ Luminescence Assay System (PerkinElmer Inc., Waltham, Mass.) using the various cell-lines described above and in Table 4. Briefly, cells were seeded in 96-well plates and then treated with different concentrations of inhibitor (0.1% final DMSO concentration). After 96-hours of incubation, ATPlite detection reagent was added directly to the culture well. Luminescence was read 5 minutes later on an Envision microplate reader.

Sequence of MAO B (P27338 whole entry): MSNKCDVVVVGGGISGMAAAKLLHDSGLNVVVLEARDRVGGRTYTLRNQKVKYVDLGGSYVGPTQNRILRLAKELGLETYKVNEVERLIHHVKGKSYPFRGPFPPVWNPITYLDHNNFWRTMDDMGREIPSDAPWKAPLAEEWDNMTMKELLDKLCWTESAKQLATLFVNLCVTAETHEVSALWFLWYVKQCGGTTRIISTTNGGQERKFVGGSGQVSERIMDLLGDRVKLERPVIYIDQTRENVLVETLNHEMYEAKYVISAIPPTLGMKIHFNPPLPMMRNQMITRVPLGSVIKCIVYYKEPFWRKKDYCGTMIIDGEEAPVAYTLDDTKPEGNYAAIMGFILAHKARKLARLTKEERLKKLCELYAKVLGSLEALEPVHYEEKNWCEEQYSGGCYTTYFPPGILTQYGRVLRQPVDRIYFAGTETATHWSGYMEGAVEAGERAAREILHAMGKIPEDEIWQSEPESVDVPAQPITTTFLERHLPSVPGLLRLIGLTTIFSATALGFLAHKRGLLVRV
Sequence of MAO A (P21397 whole entry): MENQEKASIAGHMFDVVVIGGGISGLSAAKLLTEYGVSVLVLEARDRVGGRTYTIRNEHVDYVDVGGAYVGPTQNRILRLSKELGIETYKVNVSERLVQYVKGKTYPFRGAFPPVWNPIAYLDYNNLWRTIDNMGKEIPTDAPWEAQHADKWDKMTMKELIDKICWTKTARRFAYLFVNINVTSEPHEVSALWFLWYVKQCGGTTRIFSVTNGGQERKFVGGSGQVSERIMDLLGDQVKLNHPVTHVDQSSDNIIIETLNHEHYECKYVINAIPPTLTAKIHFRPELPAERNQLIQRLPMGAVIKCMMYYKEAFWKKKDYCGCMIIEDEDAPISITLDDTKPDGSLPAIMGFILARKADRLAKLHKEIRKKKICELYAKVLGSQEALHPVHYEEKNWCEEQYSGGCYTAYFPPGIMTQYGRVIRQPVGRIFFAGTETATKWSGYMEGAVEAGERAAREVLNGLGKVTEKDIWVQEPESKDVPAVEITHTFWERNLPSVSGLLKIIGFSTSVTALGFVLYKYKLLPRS

Row | SMILES | IC50 (T-47D cells) | LSD1 biochemical activity (in words) (LSD1) | other results
1 | O=C(N/N=C/c1ccccc1O)c1ccc(O)cc1 [Compound 1] |  |  | activity against MAO A (in words) (MAO A): no activity; activity against MAO B (in words) (MAO B): comparable activity to tranylcypromine
2 | COc1ccc(Cl)cc1C(=O)NNC(=O)c1cc(S(=O)(=O)N2CCOCC2)ccc1F [Compound 6] | > 10 µM | lack of biochemical activity | 
3 | O=C(NNC(=O)c1cc(S(=O)(=O)N2CCOCC2)ccc1F)c1cccc(Cl)c1 [Compound 7] | > 10 µM |  | 
4 | CCN(CC)S(=O)(=O)c1ccc(F)c(C(=O)NNC(=O)c2ccc(C)cc2)c1 [Compound 8] | > 10 µM | lower activity | 
5 | C/C(=N\NC(=O)c1cccc(S(=O)(=O)N2CCOCC2)c1)c1cccc2ccccc12 [Compound 10] | > 10 µM | lower activity | IC50 (LSD1): > 10 µM
6 | C/C(=N\NC(=O)c1cccc(S(=O)(=O)N2CCOCC2)c1)c1cc(Cl)ccc1O [Compound 12, (E)-N′-(1-(5-chloro-2-hydroxyphenyl)ethylidene)-3-(morpholinosulfonyl)benzohydrazide] |  |  | IC50 (MAO A): > 300 µM; IC50 (MAO B): > 300 µM; IC50 (MDA-MB-235): 0.728 µM
7 | C/C(=N\NC(=O)c1cccc(S(=O)(=O)N2CCOCC2)c1)c1ccnc(Cl)c1 [Compound 15, (E)-N′-(1-(2-chloropyridin-4-yl)ethylidene)-3-(morpholinosulfonyl)benzohydrazide] | > 10 µM | drop in biochemical activity | 
8 | C/C(=N\NC(=O)c1cccc(S(=O)(=O)N2CCOCC2)c1)c1cc(Cl)ccc1Cl [Compound 16, (E)-N′-(1-(2,5-dichlorophenyl)ethylidene)-3-(morpholinosulfonyl)benzohydrazide] | > 10 µM | significant drop in activity | LSD1 biochemical activity (in words) (LSD1; listed as compound 16): activity was decreased
9 | C/C(=N\NC(=O)c1ccc(Cl)c(Br)c1)c1cc(Cl)ccc1O [Compound 17, (E)-3-bromo-4-chloro-N′-(1-(5-chloro-2-hydroxyphenyl)ethylidene)benzohydrazide] | 1.7 µM | drop in biochemical activity | 
10 | C/C(=N\NC(=O)c1cnc(Cl)c(Br)c1)c1cc(Cl)ccc1O [Compound 19, (E)-5-bromo-6-chloro-N′-(1-(5-chloro-2-hydroxyphenyl)ethylidene)nicotinohydrazide] | 1.38 µM | drop in biochemical activity | 
11 | C/C(=N\NC(=O)c1cncc(Cl)c1)c1cc(Cl)ccc1O [Compound 20, (E)-5-chloro-N′-(1-(5-chloro-2-hydroxyphenyl)ethylidene)nicotinohydrazide] | 0.27 µM | drop in biochemical activity | 
12 | CC/C(=N\NC(=O)c1cccc(S(=O)(=O)N2CCOCC2)c1)c1cc(Cl)ccc1O [Compound 21, (E)-N′-(1-(5-chloro-2-hydroxyphenyl)propylidene)-3-(morpholinosulfonyl)benzohydrazide] | 0.616 µM |  | 
13 | C/C(=N\NC(=O)c1cccc(S(=O)(=O)N2CCOCC2)c1)c1cccnc1 [Compound 22, (E)-3-(morpholinosulfonyl)-N′-(1-(pyridin-3-yl)ethylidene)benzohydrazide] |  | drop in biochemical activity | 
14 | C/C(=N\NC(=O)c1cncc(S(C)(=O)=O)c1)c1cc(Cl)ccc1O [Compound 24, (E)-N′-(1-(5-chloro-2-hydroxyphenyl)ethylidene)-5-(methylsulfonyl)nicotinohydrazide] |  |  | activity against MAO A (in words) (MAO A): no activity; activity against MAO B (in words) (MAO B): no activity
15 | N[C@@H]1CC1c1ccccc1 (stereo partly drawn) [tranylcypromine, reference compound] |  |  | activity against MAO A (in words) (MAO A): exhibited activity; activity against MAO B (in words) (MAO B): exhibited activity

Reference: US8987335B2, “Substituted (E)-N′-(1-phenylethylidene)benzohydrazide analogs as histone demethylase inhibitors” (University of Utah Research Foundation, priority 2011, dated 2015)
